Measured values taken from ChEMBL document CHEMBL1150280, “Mono-tetrahydrofuran annonaceous acetogenins from Annona squamosa as cytotoxic agents and calcium ion chelators” (J Nat Prod, 2008).

Tests used:
MCF7 = assay: cells; details: Homo sapiens, MCF7, 72 h
Description: Cytotoxicity against human MCF7 cells after 3 days by MTT assay

[1] = Cytotoxicity against human Hep3B cells after 3 days by MTT assay; details: 72 h
HepG2 = assay: Cytotoxicity against human HepG2 cells after 3 days by MTT assay; details: HepG2, 72 h
MDA-MB-231 = assay: cells; details: Homo sapiens, MDA-MB-231, 72 h
Description: Cytotoxicity against human MDA-MB-231 cells after 3 days by MTT assay

A549 = assay: Cytotoxicity against human A549 cells after 3 days by MTT assay; details: A549, 72 h

| SMILES | IC50 (MCF7) [µM] | IC50 [1] [µM] | IC50 (HepG2) [µM] | IC50 (MDA-MB-231) [µM] | IC50 (A549) [µM] |
| --- | --- | --- | --- | --- | --- |
| CCCCCCCCCC[C@@H](O)[C@H]1CC[C@H]([C@H](O)CCCCCCCCCCCCCCCCC2=C[C@H](C)OC2=O)O1 | 3.31 |  |  |  |  |
| CCCCCCCCCCCCCC[C@@H](O)[C@H]1CC[C@H]([C@H](O)CCCCCCCCCCCCC2=C[C@H](C)OC2=O)O1 | 28.3 |  |  |  |  |
| CCCCCCCCCC[C@@H](O)[C@H]1CC[C@@H]([C@@H](O)CCCCCCCCCCCCCCC2=C[C@H](C)OC2=O)O1 | 30.7 |  |  |  |  |
| CCCCCCCCCCCCC(O)C1CCC(C(O)CCCCCCCCCCCCCCC2=CC(C)OC2=O)O1 (stereo not given) | 8.11 |  |  |  |  |
| CCCCCCCCCC/C=C\CC[C@@H](O)[C@H]1CC[C@H]([C@H](O)CCCCCCCCCCCCC2=C[C@H](C)OC2=O)O1 [BULLATENCIN] |  | 31.4 |  |  |  |
| CC(=O)O[C@H]1C(=O)[C@@]2(C)[C@H]([C@H](OC(=O)c3ccccc3)[C@]3(O)C[C@H](OC(=O)[C@H](O)[C@@H](NC(=O)c4ccccc4)c4ccccc4)C(C)=C1C3(C)C)[C@]1(OC(C)=O)CO[C@@H]1C[C@@H]2O [PACLITAXEL] |  | 0.13 | 0.0468 | 0.0703 |  |
| CCCCCCC(O)CCC[C@H](O)[C@H]1CC[C@H]([C@H](O)CC[C@@H](O)[C@H](O)CCCCCCCCCCCCC2=C[C@H](C)OC2=O)O1 (stereo not given in full) [SQUADIOLIN A] | 2.83 | 3.52 | 0.0056 | 0.63 | < 0.2 |
| CCCCCCCCCC[C@H](O)[C@@H](O)CC[C@H](O)[C@@H](O)CC[C@@H](O)[C@H]1CC[C@H](CCCCCCCCCC2=C[C@H](C)OC2=O)O1 [SQUADIOLIN B] | 5.47 | 6.98 | 0.011 | 0.28 | 2.75 |
| CCCCCCCCCCCC[C@H](O)[C@@H](O)CCCC[C@@H](O)[C@H]1CC[C@H](CCCCCCCC(O)CC2=C[C@H](C)OC2=O)O1 (stereo not given in full) [SQUADIOLIN C] | 3.62 |  | 3.48 | 14.5 | 8.11 |
| CCCCCCC(O)C(O)CCCCCC[C@@H](O)[C@H]1CC[C@H]([C@H](O)CCCCCCCCCCCCC2=C[C@H](C)OC2=O)O1 (stereo not given in full) [SQUAFOSACIN B] | 0.96 | 0.72 | 0.71 | 17 | 0.66 |
| CCCCCCCCCC[C@@H](O)[C@H]1CC[C@H]([C@H](O)CCCCCC(O)CCCCCCCCC2=C[C@H](C)OC2=O)O1 (stereo not given in full) [SQUAFOSACIN C] | 26.4 | 14 | 18.9 | 18.1 | 21 |
| CCCCCCCCCCCC[C@H](O)[C@H]1CC[C@@H]([C@@H](O)CCCCCCCCCCCCC2=C[C@H](C)OC2=O)O1 [SQUAFOSACIN F] | 35.1 |  |  | > 36 |  |
| CCCCCCCCCC[C@H](O)[C@H]1CC[C@@H]([C@@H](O)CCCCCCCCCCCCCCCCC2=C[C@H](C)OC2=O)O1 [SQUAFOSACIN G] | 29.8 |  |  |  |  |
